From patent US5041542A, “Substituted pyrimido[5,4-d]pyrimidine nucleosides” (Nucleic Acid Research Institute, priority 1988, dated 1991)

What was measured:
[1] = system: Herpes 2, parainfluenza 3 and Vaccinia; format: cell-based; details: tested in parallel with ARPP (8)
WI-L2 adenosine kinase = biological target: T1, WI-L2 adenosine kinase (Homo sapiens, UniProt P55263); experiment: Adenosine kinase inhibition (filter binding assay); format: biochemical; details: decrease in rate of [14C]AMP formation from [14C]adenosine
T1 construct: added to the cell-free WI-L2 lysate to give 5 μM final assay concentration; endogenous in cells; host or cells: WI-L2 B lymphoblast cells (cell-free lysate)

[2] = Anomerization in aqueous solution (reverse-phase HPLC); format: physicochemical; details: buffered, 37° C., 9 h, no added protein
Protocol: This would be expected where the rate of anomerization is slow compared to the rate of deamination.
The compounds of the invention are capable of crossing the cell membrane, and activated to the 5'-phosphate, thus causing the inhibition of the de novo purine biosynthesis.
HPLC Analysis: Sample components were separated with an LKB model 2150 gradient HPLC system at ambient temperature on an Altex Ultrashere-ODS reverse phase column (Beckman) developed with a linear gradient of buffer A (10 mM KPO4 ', pH 3.83) to 20% component B (60% aqueous CH3 CN) at a combined flow rate of 1.0 mL/min over 15 min. Ultraviolet (UV) absorbance was monitored with an LKB model 2140 diode array detector. Inhibition of de novo purine biosynthesis: WI-L2 or adenosine kinase-deficient cells were preincubated at 37° C. with drug for various time periods prior to labeling with [^14 C]formate. Enzyme Assays: Adenosine kinase inhibition studies were accomplished by the filter binding assay method. Inhibition studies were done at 37° C. with an assay mixture containing 4 mM ATP, 1.5 mM MgCl2, 5 or 10 μM [8-^14 C] adenosine (50 mCi/mmol) and 100 mM Tris-maleate, pH 5.5. To prevent the enzymatic breakdown of adenosine, erythro-9-(2-hydroxy-3-nonyl)adenine (EHNA) was added to the cell-free WI-L2 lysate to give 5 μM final assay concentration. The assay was started by the addition of protein. The amount of enzyme, time of assay and sampling volume were adjusted to give acceptable conversion of [8-^14 C] adenosine to [8-^14 C]AMP. Each DE-81 filter was spotted with a constant sampling volume and immersed in H 2 O (4 L) to terminate the reaction. Filters were washed three times with H2 O (4 L) and once with EtOH (100 mL). Dry filters were placed in scintillation vials and radioactivity was counted with 10 mL toluene-based scintillation cocktail.

in vivo = details: mouse, ip
[3] = system: human immunodeficiency virus; experiment: In vitro activity against HIV, viral cytopathic effect; format: cell-based
Protocol: (§1) Compound 8 was evaluated by the National Cancer Institute for in vitro activity against human immunodeficiency virus (HIV: cell line:CEM-V). In this test the compound was screened using human "host" cells with and without virus. The test is conducted for seven days (during which time infected, non-drug treated control cells are largely or totally destroyed by the virus), and then the number of remaining viable cells are determined. […] A therapeutic index (TI) can be calculated as the IC/EC ratio.

CEM-V cells = experiment: Growth inhibition of normal, uninfected cells (HIV test); format: cell-based; details: Homo sapiens, 168 h
Protocol: as §1

[4] = Intracellular phosphorylation (SAX-HPLC); format: cell-based
DNA and RNA viruses = details: cited from earlier work
L1210 leukemia = details: mouse, in vivo; cited from earlier work

T1 sequence (P55263 whole entry): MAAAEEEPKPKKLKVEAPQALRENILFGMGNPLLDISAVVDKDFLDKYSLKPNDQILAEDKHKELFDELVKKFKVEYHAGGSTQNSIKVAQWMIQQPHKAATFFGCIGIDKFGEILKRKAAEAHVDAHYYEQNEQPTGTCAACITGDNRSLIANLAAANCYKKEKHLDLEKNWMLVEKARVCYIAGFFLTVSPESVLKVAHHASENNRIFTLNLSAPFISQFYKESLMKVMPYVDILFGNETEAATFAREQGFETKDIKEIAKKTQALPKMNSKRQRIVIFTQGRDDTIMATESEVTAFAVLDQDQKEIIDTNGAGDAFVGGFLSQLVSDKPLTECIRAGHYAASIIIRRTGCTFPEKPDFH

COc1ncnc2c(N[C@@H]3O[C@H](CO)[C@@H](O)[C@H]3O)ncnc12 [Compound 14, 4-Methoxy-8-(β-D-ribofuranosylamino)pyrimido[5,4-d]pyrimidine]
Antiviral activity in cell culture [1]: antiviral activity
direct inhibition of adenosine kinase (WI-L2 adenosine kinase): Direct inhibition
21 (anomeric mixture) formed from compound 14 [2]: 0.42%
α-anomer 17 formed from compound 14 [2]: 1.35%
MTD (in vivo): 62 mg/kg

Nc1ncnc2c(N[C@@H]3O[C@H](CO)[C@@H](O)[C@H]3O)ncnc12 [Compound 8, 4-Amino-8-(β-D-ribofuranosylamino)pyrimido[5,4-d]pyrimidine, reference compound]
EC50 ([3]; Human immunodeficiency virus 1, 168 h, read-out: EC50 (50% reduction of viral cytopathic effect)): 95.1 nM
EC90 ([3]; Human immunodeficiency virus 1, 168 h, HIV, CEM-V cells, seven days, read-out: EC90 (90% reduction of viral cytopathic effect)): 768 nM
therapeutic index at 50% (IC/EC ratio) ([3]; IC50/EC50, HIV, CEM-V, 10080 min): 2.05×10^1
therapeutic index at 90% (IC/EC ratio) ([3]; IC90/EC90, HIV, CEM-V, 10080 min): 8.60×10^0
IC50 (CEM-V cells; read-out: IC50 (50% growth inhibition), seven days): 1950 nM
IC90 (CEM-V cells; seven days): 6600 nM
intracellular phosphate formation [4]: formation of intracellular ARPP 5'-monophosphate but no higher phosphate analogues
antiviral activity in cell culture (cited) (DNA and RNA viruses): antiviral activity for DNA and RNA viruses in cell culture by inhibiting viral protein synthesis
growth of L1210 leukemia in mice (cited) (L1210 leukemia): inhibits the growth of L1210 leukemia in mice
